This is an account of results in article PMC8176454, “Synthesis and Assessment of Novel Probes for Imaging Tau Pathology in Transgenic Mouse and Rat Models” (ACS Chemical Neuroscience, 2021).

“Also recorded” adds a separate entry of the source. Read-outs that look alike come from different tables or passages of the source.

Data set [1] has as its target T1, heparin-induced synthetic recombinant tau fibrils (tau-441 human) (Homo sapiens, UniProt P10636).
T1 construct: purchased Eurogentec
The data set can be described thus: Fluorescence quenching assay of compound binding to heparin-induced synthetic recombinant tau fibrils. Conditions: read-out: Kd of compound binding to heparin-induced synthetic tau fibrils determined by fluorimetry. Here is the method: All compounds were assessed for their ability to bind to synthetic recombinant tau fibrils using a fluorescence quenching assay[20] […] Binding affinities for some compounds (141, 164, 166, 169, 171, and 207) could not be assessed with this assay because of negligible changes in fluorescence intensity. […] This compound was then selected for further characterization and development.
All reagents and solvents were used as supplied or purified using standard procedures as necessary. Analytical separation was conducted on an Ultimate 3000 HPLC system (Thermo Scientific). [^11C]CO2 was produced via the ^14N(p,α) nuclear reaction using GE PETtrace cyclotron applying 16.5 MeV protons onto 0.5% oxygen in nitrogen gas. [^11C]Methyl iodide was synthesized on a GE Medical Systems MeI MicroLab. A F-4500 FL spectrophotometer (Chemical Engineering department, University of Cambridge) was used to do fluorescence scan of all of the compounds mixed with tau fibrils. Excitation wavelength was 365 nm, and emission was scanned from 400 to 600 nm. With parameters, setting excitation slit was 5.0 nm, emission slit was 20.0 nm, PMT voltage was 950 V, and response was 0.5 s.
Monomeric tau (tau-441 human) lyophilized powder was obtained from Eurogentec. Tau monomers (100 μM) were prepared in 20 mM BES buffer (pH 7.4 with 25 mM NaCl and 2 mM dithiothreitol and incubated at 56 °C for 10 min. After being cooled to room temperature in a water bath, heparin (25 μM) and a protease inhibitor mix were added and incubated at 37 °C for 10 days. […]
Binding affinity of all compounds with tau fibrils […]
All other compounds binding affinit ies towards tau fibrils
were then tested by fluorescent binding assay. […]

Data set [2] concerns tau aggregates in DRG neurons from P301S tau mice. The data set can be described thus: Fluorescence binding to cultured DRG neurons from P301S tau transgenic mice. The data set is classed as cell-based, mouse. As to conditions: for IC50: Mus musculus, DRG neuron. Here is the method:
P301S tau mice with aggregated tau in the brain also express aggregated tau in DRG neurons.[24]−[26] […] To estimate the apparent affinity of LM229 to tau aggregates directly in living neurons, we imaged live neurons after 20 min incubation with various concentrations of LM229 (Figure 4A). […] LM229 binding was specific to neurons with aggregated tau, as detected with the AT100 antibody[18],[22],[23],[26] (Figure 4D). […] Although PBB3 also bound to DRG neurons with tau aggregates at 30–100 μM, it was not possible to derive an IC50 value because of its low affinity in this assay (Supporting Information, Figure S2). […] The shift from nanomolar to micromolar affinity between binding to heparin tau fibrils and tau aggregates in P301S tau neurons may reflect the different environment and assay conditions or the different conformations that tau aggregates assume in neurons compared to heparin–tau complexes.[27]
Neurons were prepared from phenotypic end stage 5–7 month old P301S tau mice and cultured as described previously.[24] For live staining, neurons cultured for 2 days were washed in PBS and incubated with various concentrations of LM229 for 20 min at room temperature. After three washes in PBS, neurons were imaged on a Leica DMI 4000B microscope using a DFC3000 G camera and application suite 4.0.0.11706. The dead cell stain Propidium iodide (1 μg/mL) was added to ensure that only live cells were imaged. Phase contrast images were taken to show viable neurons. For fixed cell staining, neurons were fixed for 20 min at room temperature in 4% paraformaldehyde, washed in PBS, and permeabilized in PBS containing 0.3% Triton X-100. LM299 was added as described for live cells, and cells were probed with AT100 (1:1000, MN1060) followed by anti-mouse AlexaFluor568 secondary antibody. Cultures were co-stained with the nuclear dye DAPI (blue) to reveal total cells. […]
Binding to cultured neurons from P301S tau transgenic mice
DRG were incubated with the indicated concentrations of LM229 or PBB3 for 20 minutes at room temperature, washed 3 times in PBS, and imaged on a Leica DMI 4000B microscope using a Leica DFC3000 G camera and the Leica application suite 4.0.0.11706. Fluorescence intensity was measured in 10-16 neurons each from 3 independent cultures using Image J (imagej.nih.gov/ij/). Results shown are mean ± SD. Non linear least squares curve fitting was applied using http://faculty.gvsu.edu/carlsont/232lab/nonlin2.html. No Km value was […]
Figure S2: Binding of LM229 and PBB3 to DRG neurons with tau aggregates […]
(1 picture or pasted object on this page, not shown here)

The target in data set [3] is T2, tau aggregates in brain of P301S tau mice (Homo sapiens, UniProt P10636, P618S).
T2 construct: from tissue; host or cells: brain of transgenic P301S tau mice (C57Bl/6 background)
The data set can be described thus: Ex vivo mouse study: i.v. injection, brain sections imaged after 1 h. Type of data set: in vivo. Here is the method: We next looked at the ability of LM229 to cross the blood–brain barrier (BBB), a key property of any viable neuro-radiotracer. LM229 was injected intravenously (i.v.) (1 mg/kg weight), and after 1 h, WT and P301S tau mice were perfused-fixed and brain sections were imaged under a fluorescence microscope. […] However, we await a comparison of PBB3 and LM229 by PET imaging to determine their relativity properties as in vivo imaging probes.
Mice were injected intravenously (i.v.) with 50 μM LM229 or PBB3 (DMSO) diluted in 50:50 ethanol/PBS. Animals were then perfused (4% PFA) 1 h post-i.v.

T2 sequence (P10636 1-383 isoform P10636-6 P243S): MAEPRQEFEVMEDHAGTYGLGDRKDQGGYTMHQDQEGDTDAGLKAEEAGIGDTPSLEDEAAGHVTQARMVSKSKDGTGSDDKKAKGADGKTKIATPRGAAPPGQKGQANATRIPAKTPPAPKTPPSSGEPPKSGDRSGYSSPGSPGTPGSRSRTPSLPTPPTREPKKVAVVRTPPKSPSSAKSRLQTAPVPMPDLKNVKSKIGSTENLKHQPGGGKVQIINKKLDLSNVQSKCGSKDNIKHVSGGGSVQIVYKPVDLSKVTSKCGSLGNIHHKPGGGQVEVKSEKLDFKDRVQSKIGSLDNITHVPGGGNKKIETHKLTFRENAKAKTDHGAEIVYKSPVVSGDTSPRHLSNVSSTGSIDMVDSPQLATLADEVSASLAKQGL
T1 sequence (P10636 1-441 isoform P10636-8): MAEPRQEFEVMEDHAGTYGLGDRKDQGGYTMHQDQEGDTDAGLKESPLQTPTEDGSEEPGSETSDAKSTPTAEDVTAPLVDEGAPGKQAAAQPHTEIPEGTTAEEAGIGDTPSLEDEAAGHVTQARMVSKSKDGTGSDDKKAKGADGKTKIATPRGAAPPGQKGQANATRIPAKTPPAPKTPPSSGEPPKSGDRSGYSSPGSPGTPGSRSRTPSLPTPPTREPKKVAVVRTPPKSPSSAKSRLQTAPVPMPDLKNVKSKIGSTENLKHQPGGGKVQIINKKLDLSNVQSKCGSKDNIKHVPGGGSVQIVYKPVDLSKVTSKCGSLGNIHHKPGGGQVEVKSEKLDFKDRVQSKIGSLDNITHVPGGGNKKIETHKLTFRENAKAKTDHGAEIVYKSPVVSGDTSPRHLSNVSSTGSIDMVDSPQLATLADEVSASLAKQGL

One may read the Kd as the free concentration of one partner at which half of the binding sites on the other are occupied at equilibrium, for simple one-to-one binding. As usually defined, the IC50 is the midpoint of a concentration-inhibition curve. As to `CNc1ccc(/C=C/C=C/c2nc3cc(F)c(O)cc3s2)cn1` [LM229], the dissociation constant (Kd) in data set [1] amounted to 3.6 nM. Moreover, in data set [2] (3 days after exposure), the “Retention of fluorescence in neurons after exposure and washes” value was “still retained albeit to a lower intensity”. Further, the concentration for half-maximal inhibition (IC50) came to 2700 ± 700 nM in data set [2] (20 min, live DRG neurons, 20 min incubation, read-out: IC50, apparent affinity to tau aggregates in live neurons); 1670 ± 280 nM in data set [2] (fixed DRG neurons, figure legend value, read-out: IC50, fixed neurons (Figure 4B)); 1700 ± 300 nM in data set [2] (fixed, permeabilized DRG neurons, read-out: IC50, fixed and permeabilized neurons); 2970 ± 730 nM in data set [2] (live DRG neurons, figure legend value, read-out: IC50, live neurons (Figure 4B)). Besides, in data set [2] (live vs fixed/permeabilized DRG neurons), the Cell permeability result is recorded as “highly cell permeable”. For the same molecule, the “Blood–brain barrier crossing” value in data set [3] (i.v. 1 mg/kg, 1 h, fluorescence microscopy) is “crosses the BBB”. Further, the “Ex vivo binding in P301S tau brain tissue” value in data set [3] (i.v. injection 1 h prior, colocalization with AT8) is “less non-specific binding and more specific binding to tau aggregates; also recorded: significant specific binding to tau aggregates”.
